Reference: PMC2922868 (ACS medicinal chemistry letters, 2010)
Entries after “also recorded” stand apart in the source; their conditions may differ. Read-outs that look alike come from different tables or passages of the source.

Key:
Hsp90-IP6K2 pathway = conditions: ref [17]; cited from earlier work
Hsp90-IP6K2 interaction [1] = conditions: ref [17], cited from earlier work
Hsp90-FKBP52 interaction = conditions: not tested in this paper; reference not given; cited from earlier work
[2] = ref [6], [8]; cited from earlier work
Hsp90-IP6K2 interaction [3] = assay: in vitro pull down binding assay, Hsp90-IP6K2
[4] = tested on: IP6K2 over expressed (K2-O/E) HEK 293 cells; assay: cell survival, IP6K2 over expressed vs wild-type HEK 293 cells; assay type: cell-based; conditions: 48 hours, CCK-8
[5] = tested on: N-middle domain of Hsc82 (yeast variant of Hsp90); assay: pull-down with San A-amide-Biotin, Hsc82 N-middle construct; assay type: binding; conditions: San A-amide-Biotin as probe, His-fusion, Figure 5 lane 5
[6] = tested on: full length Hsc82 (yeast variant of Hsp90); assay: pull-down with San A-amide-Biotin, Hsc82 full length; assay type: binding; conditions: San A-amide-Biotin as probe, His-fusion, Figure 5 lane 6
Hsp90 = Hsp90 ATPase activity / ATP hydrolysis; assay type: biochemical; conditions: Supplementary data, Figure S7
[7] = tested on: C-terminal domain of Hsc82 (yeast variant of Hsp90); assay: pull-down with San A-amide-Biotin, Hsc82 C-terminal domain; assay type: binding; conditions: San A-amide-Biotin as probe, His-fusion, Figure 5 lane 4
[8] = tested on: middle domain of Hsc82 (yeast variant of Hsp90); assay type: binding; conditions: pull-down, San A-amide-Biotin as probe; His-fusion; Figure 5 lane 3
[9] = tested on: N-terminal domain of Hsc82 (yeast variant of Hsp90); assay: pull-down with San A-amide-Biotin, Hsc82 N-terminal domain; assay type: binding; conditions: San A-amide-Biotin as probe, His-fusion, Figure 5 lane 2

Compound | effect on Hsp90-IP6K2 pathway (in words) (Hsp90-IP6K2 pathway) | IP6K2 binding inhibition at 10 μM (in words) (Hsp90-IP6K2 interaction [1]; 10 μM) | effect on IP6K2 binding to Hsp90 (in words) (Hsp90-IP6K2 interaction [1]) | effect on IP6K2 binding to Hsp90 (in words) (Hsp90-IP6K2 interaction [1]; listed as 17AAG) | effect on Hsp90-FKBP binding (in words) (Hsp90-FKBP52 interaction) | EC50 (Hsp90-IP6K2 interaction [1]; read-out: EC50, inhibition of IP6K2 binding to Hsp90) | apoptosis (in words) [2] | effectiveness relative to novobiocin, IP6K2 binding (in words) (Hsp90-IP6K2 interaction [3]; EC50 ~1 μM vs ~100 μM for novobiocin (ref [17])) | inhibition of IP6K2 binding to Hsp90 (in words) (Hsp90-IP6K2 interaction [3]; native Hsp90 from HeLa cells, His-IP6K2, 0-10 μM) | fold potency over Novobiocin at inhibiting C-terminal client proteins (Hsp90-IP6K2 interaction [3]; versus Novobiocin) | fold change in survival difference, with drug vs no drug (3% vs 27% change) ([4]; 25 μM San A-amide, K2-O/E vs wild type HEK 293) | change in cell survival, K2-O/E compared to wild type (control) ([4]; 25 μM San A-amide, change without drug 3%) | cell survival in K2-O/E compared to wild type (in words) ([4]; 25 μM) | induction of cell death through the Hsp90-IP6K2 pathway (in words) ([4]; 25 μM, HEK 293) | binding to N-middle construct [5] | binding to full length Hsc82 [6] | effect on ATP hydrolysis by Hsp90 (Hsp90) | binding to C-terminal domain [7] | binding to middle domain [8] | binding to N-terminal domain [9]
C=CCNC1=C2C[C@@H](C)C[C@H](OC)[C@H](O)[C@@H](C)/C=C(\C)[C@H](OC(N)=O)[C@@H](OC)/C=C\C=C(/C)C(=O)NC(=CC1=O)C2=O [17-AAG, 17-allylamino, 17-demethoxygeldanamycin] | did not affect this pathway | not inhibited | did not affect the binding of IP6K2 | FKBP and IP6K2 binding to Hsp90 are not affected |  |  |  |  |  |  |  |  |  |  |  |  |  |  |  | 
CO[C@@H]1[C@@H](OC(N)=O)[C@@H](O)[C@H](Oc2ccc3c(O)c(NC(=O)c4ccc(O)c(CC=C(C)C)c4)c(=O)oc3c2C)OC1(C)C [novobiocin] |  |  | only disrupts Hsp90-IP6K2 |  | not FKBP binding | ~100 µM |  |  |  |  |  |  |  |  |  |  |  |  |  | 
Sansalvamide A-amide [San A-amide] |  |  |  |  |  |  | shown to cause apoptosis | significantly more effective binding inhibitor | able to block both Hsp90-IP6K2 and Hsp90-FKBP interactions; also recorded: blocks the binding of Hsp90 to a client protein; also recorded: inhibits the binding of the C-terminal interacting protein, IP6K2, to Hsp90 | over 100 fold | ~ 9 fold | 27% | cell survival is substantially decreased in cells that over-express IP6K2 compared to wild type cells | induces cell death, at least in part, through the Hsp90-IP6K2 pathway | optimal affinity; also recorded: specifically binds to the N-middle domain of Hsp90 | bound to full length Hsp90 | no affect on ATP hydrolysis | no affinity | partial affinity | only a marginally detectable interaction
